For series [1] the following is noted: in vivo; cited from earlier work.
For series [2] the following is noted: in vivo; cited from earlier work. The source holds these as a separate data set.
Series [3] deals with cancer cells (in cancer tissue sections). Conditions: sugar as food substrate; cited from earlier work.
The test system is the same in series [4]. Briefly: fermentation metabolism of cancer cells with different sugars as food substrate (Warburg). The conditions noted are these: sugar as food substrate. The series is classed as cell-based. An excerpt: On the other hand, tests carried out by the Nobel prizewinner Otto Heinrich Warburg have shown that the fermentation metabolism of cancer cells (in cancer tissue sections) progresses most effectively with glucose as a food substrate, specifically at a rate of 23.9 consumed units per unit of time, whereas, with the substrate fructose, it progresses less effectively by a factor of 7 (rate 3.3), and, with galactose, progresses even less effectively by a factor of 18 (rate 1.3). […] Galactose should therefore be a key sugar source in the diet of cancer patients.

Take `O=C[C@H](O)[C@H](O)[C@H](O)CO` [Ribose]: the “glycemic index (GI)” value in series [1] is reported as “negative”. For the molecule `OC[C@H]1O[C@H](O[C@H]2O[C@H](CO)[C@@H](O)[C@H](O)[C@H]2O)[C@H](O)[C@@H](O)[C@@H]1O` [trehalose], the “glycemic index (GI)” value in series [1] was approximately 32. `O=C(CO)[C@@H](O)[C@@H](O)[C@H](O)CO` [Tagatose]: in series [2], the “extent digested directly by the human body” value was “approximately 20%” and the “remaining fraction broken down by the intestinal flora” value is listed as 80%. Besides, the “glycemic index (GI)” value in series [1] was 3. Regarding `O=C[C@H](O)[C@@H](O)[C@H](O)[C@H](O)CO` [glucose, reference compound], the “rate of fermentation metabolism” value in series [3] was 23.9 consumed units per unit of time. Further, the “glycemic index (GI)” value in series [1] is recorded as 100.

Consider `OC[C@H]1O[C@H](OC[C@H]2OC(O)(CO)[C@@H](O)[C@@H]2O)[C@H](O)[C@@H](O)[C@@H]1O` (some centres unmarked) [isomaltulose], for which the “glycemic index (GI)” value in series [1] is given as 32. `OC[C@H]1O[C@@](CO)(O[C@H]2O[C@H](CO)[C@@H](O)[C@H](O)[C@H]2O)[C@@H](O)[C@@H]1O` [sucrose, reference compound]: the “glycemic index (GI)” value in series [1] is given as 65. As for `O=C(CO)[C@@H](O)[C@H](O)[C@H](O)CO` [fructose, reference compound], the “rate of fermentation metabolism” value in series [3] is given as 3.3 consumed units per unit of time. For the same molecule, the “factor by which fermentation progresses less effectively than with glucose” value in series [4] is on record as 7. With `O=C[C@H](O)[C@@H](O)[C@@H](O)[C@H](O)CO` [galactose], the “rate of fermentation metabolism” value in series [3] is recorded as 1.3 consumed units per unit of time. Further, the “factor by which fermentation progresses less effectively than with glucose” value in series [4] is on record as 18. Besides, the “glycemic index (GI)” value in series [1] is on record as 20.
